Measured values reported in patent publication US7638639B2, “Substituted pyrrolidine and related compounds” (Theravance, Inc., priority 2003, dated 2009).

What was measured:
[1] = target: T1, hM3 muscarinic receptor subtype (Homo sapiens, UniProt P20309); experiment: Radioligand binding assay ([3H]-NMS displacement), hM3
T1 construct: expressed in transfected cells
Protocol: (§1) A. Membrane Preparation from Cells Expressing hM1, hM2, hM3 and hM4 Muscarinic Receptor Subtypes
(§2) CHO (Chinese hamster ovary) cell lines stably expressing cloned human hM1, hM2, hM3 and hM4 muscarinic receptor subtypes, respectively, were grown to near confluency in medium consisting of HAM's F-12 supplemented with 10% FBS (Fetal Bovine Serum) and 250 μg/mL Geneticin. The cells were grown in a 5% CO2, 37° C. incubator and lifted with 2 mm EDTA in dPBS. Cells were collected by 5 minute centrifugation at 650×g, and cell pellets were either stored frozen at −80° C. or membranes were prepared immediately. For membrane preparation, cell pellets were resuspended in lysis buffer and homogenized with a Polytron PT-2100 tissue disrupter (Kinematica AG; 20 seconds×2 bursts). Crude membranes were centrifuged at 40,000×g for 15 minutes at 4° C. The membrane pellet was then resuspended with resuspension buffer and homogenized again with the Polytron tissue disrupter. The protein concentration of the membrane suspension was determined by the method described in Lowry, O. et al., 1951, […]: 193, 265. All membranes were stored frozen in aliquots at −80° C. or used immediately. Aliquots of prepared hM5 receptor membranes were purchased directly from Perkin Elmer and stored at −80° C. until use.
(§3) B. Radioligand Binding Assay on Muscarinic Receptor Subtypes hM1, hM2, hM3, hM4 and hM5
(§4) Radioligand binding assays were performed in 96-well microtiter plates in a total assay volume of 100 μL. CHO cell membranes stably expressing either the hM1, hM2, hM3, hM4 or hM5 muscarinic subtype were diluted in assay buffer to the following specific target protein concentrations (μg/well): 10 μg for hM1, 10-15 μg for hM2, 10-20 μg for hM3, 10-20 μg for hM4, and 10-12 μg for hM5. The membranes were briefly homogenized using a Polytron tissue disruptor (10 seconds) prior to assay plate addition. Saturation binding studies for determining KD values of the radioligand were performed using L-[N-methyl-3H]scopolamine methyl chloride ([^3H]-NMS) (TRK666, 84.0 Ci/mmol, Amersham Pharmacia Biotech, Buckinghamshire, England) at concentrations ranging from 0.001 nM to 20 nM. Displacement assays for determination of Ki values of test compounds were performed with [^3H]-NMS at 1 nM and eleven different test compound concentrations. The test compounds were initially dissolved to a concentration of 400 μM in dilution buffer and then serially diluted 5× with dilution buffer to final concentrations ranging from […] to […]. The addition order and volumes to the assay plates were as follows: 25 μL radioligand, 25 μL diluted test compound, and 50 μL membranes. Assay plates were incubated for 60 minutes at 37° C. Binding reactions were terminated by rapid filtration over GF/B glass fiber filter plates (PerkinElmer Inc., Wellesley, Mass.) pre-treated in 1% BSA. Filter plates were rinsed three times with wash buffer (10 mm HEPES) to remove unbound radioactivity. Plates were then air dried, and 50 μL Microscint-20 liquid scintillation fluid (PerkinElmer Inc., Wellesley, Mass.) was added to each well. The plates were then counted in a PerkinElmer Topcount liquid scintillation counter (PerkinElmer Inc., Wellesley, Mass.). Binding data were analyzed by nonlinear regression analysis with the GraphPad Prism Software package (GraphPad Software, Inc., San Diego, Calif.) using the one-site competition model. Ki values for test compounds were calculated from observed IC50 values and the KD value of the radioligand using the Cheng-Prusoff equation (Cheng Y; Prusoff W H. (1973) Biochemical Pharmacology, 22(23):3099-108). Ki values were converted to pKi values to determine the geometric mean and 95% confidence intervals. These summary statistics were then converted back to Ki values for data reporting.

hM2 receptor = target: T2, hM2 receptor (Homo sapiens, UniProt P08172); experiment: Blockade of agonist-mediated [35S]GTPγS binding; type: biochemical; details: CHO-K1 cells expressing the hM2 receptor; read-out: Ki for blockade of oxotremorine-stimulated [35S]GTPγS binding
T2 construct: expressed in transfected cells
T2 sequence (P08172 1-466): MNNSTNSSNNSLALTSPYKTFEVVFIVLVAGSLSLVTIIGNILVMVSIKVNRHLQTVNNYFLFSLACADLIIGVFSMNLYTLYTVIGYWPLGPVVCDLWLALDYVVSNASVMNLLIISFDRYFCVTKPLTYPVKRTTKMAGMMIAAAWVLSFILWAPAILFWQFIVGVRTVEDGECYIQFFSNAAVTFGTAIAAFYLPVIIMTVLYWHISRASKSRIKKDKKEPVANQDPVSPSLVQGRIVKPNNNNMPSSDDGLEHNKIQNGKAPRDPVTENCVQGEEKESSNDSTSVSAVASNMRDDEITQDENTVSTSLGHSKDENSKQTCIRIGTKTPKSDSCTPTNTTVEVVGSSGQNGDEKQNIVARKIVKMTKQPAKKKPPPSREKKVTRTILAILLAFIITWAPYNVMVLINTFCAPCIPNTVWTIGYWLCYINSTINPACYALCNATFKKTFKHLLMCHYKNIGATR
Protocol: B. Blockade of Agonist-Mediated GTPγ[^35S] Binding
In a second functional assay, the functional potency of a test compound is determined by measuring the ability of the compound to block oxotremorine-stimulated [^35S]GTPγS binding in CHO-K^1 cells expressing the hM2 receptor. At the time of use, frozen membranes were thawed and then diluted in assay buffer with a final target tissue concentration of 5-10 μg protein per well. The membranes were briefly homogenized using a Polytron PT-2100 tissue disrupter and then added to the assay plates.
The EC90 value (effective concentration for 90% maximal response) for stimulation of [^35S]GTPγS binding by the agonist oxotremorine was determined in each experiment.
The assay plates were then incubated at 37° C. for 60 minutes. The assay plates were filtered over 1% BSA-pretreated GF/B filters using a PerkinElmer 96-well harvester. The plates were rinsed with ice-cold wash buffer for 3×3 seconds and then air or vacuum dried. Microscint-20 scintillation liquid (50 μL) was added to each well, and each plate was sealed and radioactivity counted on a topcounter (PerkinElmer). Data were analyzed by nonlinear regression analysis with the GraphPad Prism Software package (GraphPad Software, Inc., San Diego, Calif.) using the non-linear regression, one-site competition equation. […]

[2] = target: T3, hM2 muscarinic receptor subtype (Homo sapiens, UniProt P08172); experiment: Radioligand binding assay ([3H]-NMS displacement), hM2
T3 construct: expressed in transfected cells
T3 sequence (P08172 1-466): T2 sequence (P08172 1-466)
Protocol: as §1, §2, §3, §4

T1 sequence (P20309 whole entry): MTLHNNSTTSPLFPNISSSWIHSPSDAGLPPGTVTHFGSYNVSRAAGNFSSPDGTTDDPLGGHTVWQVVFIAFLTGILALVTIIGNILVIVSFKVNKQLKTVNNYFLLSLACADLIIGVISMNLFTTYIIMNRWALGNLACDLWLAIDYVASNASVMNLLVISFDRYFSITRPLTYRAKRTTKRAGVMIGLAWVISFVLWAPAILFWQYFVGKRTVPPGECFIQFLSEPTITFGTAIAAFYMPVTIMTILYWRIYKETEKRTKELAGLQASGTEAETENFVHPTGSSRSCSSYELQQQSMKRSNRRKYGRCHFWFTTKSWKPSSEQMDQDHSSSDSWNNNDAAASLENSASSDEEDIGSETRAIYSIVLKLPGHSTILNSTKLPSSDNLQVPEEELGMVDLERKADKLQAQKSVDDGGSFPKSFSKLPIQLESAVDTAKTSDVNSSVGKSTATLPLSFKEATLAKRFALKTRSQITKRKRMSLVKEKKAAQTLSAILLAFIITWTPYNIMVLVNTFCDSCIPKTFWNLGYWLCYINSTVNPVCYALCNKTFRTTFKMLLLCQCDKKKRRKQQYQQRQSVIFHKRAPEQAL

Ki ([1]; CHO cell membranes, [3H]-NMS 1 nM, read-out: hM3 binding affinity (Ki)): 0.96 nM
Δ hM3: change in binding affinity relative to compound of the invention ([1]; ratio of hM3 Ki values): ×2.6
Ki (hM2 receptor): < 5 nM
Ki ([2]; CHO cell membranes, [3H]-NMS 1 nM, read-out: hM2 binding affinity (Ki)): 3.8 nM
Δ hM2: change in binding affinity relative to compound of the invention ([2]; ratio of hM2 Ki values): ×4.7
Compound: CNCCCCCCCCN1CC[C@@H](C(C(N)=O)(c2ccccc2)c2ccccc2)C1 [Example 1, 2-[(S)-1-(8-Methylaminooctyl)pyrrolidin-3-yl]-2,2-diphenylacetamide]
